One experiment deals with Integrin alpha-V/beta-3 (Homo sapiens, UniProt P05106+P06756). The experiment can be described thus: Binding affinity to integrin alphav/beta3 heterodimer in human M21 cells assessed as inhibition of integrin-mediated human M21 cell adhesion to vitronectin incubated for 30 mins in presence of MnCl2. The class given is cell-based.
The target in the next experiment is Integrin alpha-5/beta-1 (Homo sapiens, UniProt P05556+P08648). Nature of the experiment: Binding affinity to integrin alpha5/beta1 heterodimer in human K562 cells assessed as inhibition of integrin-mediated human K562 cell adhesion to fibronectin incubated for 30 mins in presence of MnCl2. The class given is cell-based.
Sequence of Integrin alpha-5/beta-1 (P05556 21-798 limits assumed): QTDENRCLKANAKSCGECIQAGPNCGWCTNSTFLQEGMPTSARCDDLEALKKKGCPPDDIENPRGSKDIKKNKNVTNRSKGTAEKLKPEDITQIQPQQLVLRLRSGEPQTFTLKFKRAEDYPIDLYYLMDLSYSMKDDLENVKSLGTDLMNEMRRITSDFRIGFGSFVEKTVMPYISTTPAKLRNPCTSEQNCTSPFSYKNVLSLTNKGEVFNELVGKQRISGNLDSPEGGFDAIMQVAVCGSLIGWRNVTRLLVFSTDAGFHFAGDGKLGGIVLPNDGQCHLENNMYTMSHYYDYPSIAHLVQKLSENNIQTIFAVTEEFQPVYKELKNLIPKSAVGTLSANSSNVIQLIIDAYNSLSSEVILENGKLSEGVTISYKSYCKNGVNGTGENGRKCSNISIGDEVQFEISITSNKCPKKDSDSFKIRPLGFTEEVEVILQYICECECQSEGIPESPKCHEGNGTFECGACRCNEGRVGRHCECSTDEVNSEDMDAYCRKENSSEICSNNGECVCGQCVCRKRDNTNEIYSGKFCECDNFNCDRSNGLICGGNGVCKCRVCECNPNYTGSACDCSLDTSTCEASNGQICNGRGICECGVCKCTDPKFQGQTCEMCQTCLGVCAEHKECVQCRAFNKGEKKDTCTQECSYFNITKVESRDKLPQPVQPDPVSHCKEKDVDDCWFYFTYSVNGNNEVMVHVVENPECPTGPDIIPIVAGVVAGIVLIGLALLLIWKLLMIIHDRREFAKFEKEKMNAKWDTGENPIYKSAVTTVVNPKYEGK
Sequence of Integrin alpha-5/beta-1 (P08648 42-894 limits assumed): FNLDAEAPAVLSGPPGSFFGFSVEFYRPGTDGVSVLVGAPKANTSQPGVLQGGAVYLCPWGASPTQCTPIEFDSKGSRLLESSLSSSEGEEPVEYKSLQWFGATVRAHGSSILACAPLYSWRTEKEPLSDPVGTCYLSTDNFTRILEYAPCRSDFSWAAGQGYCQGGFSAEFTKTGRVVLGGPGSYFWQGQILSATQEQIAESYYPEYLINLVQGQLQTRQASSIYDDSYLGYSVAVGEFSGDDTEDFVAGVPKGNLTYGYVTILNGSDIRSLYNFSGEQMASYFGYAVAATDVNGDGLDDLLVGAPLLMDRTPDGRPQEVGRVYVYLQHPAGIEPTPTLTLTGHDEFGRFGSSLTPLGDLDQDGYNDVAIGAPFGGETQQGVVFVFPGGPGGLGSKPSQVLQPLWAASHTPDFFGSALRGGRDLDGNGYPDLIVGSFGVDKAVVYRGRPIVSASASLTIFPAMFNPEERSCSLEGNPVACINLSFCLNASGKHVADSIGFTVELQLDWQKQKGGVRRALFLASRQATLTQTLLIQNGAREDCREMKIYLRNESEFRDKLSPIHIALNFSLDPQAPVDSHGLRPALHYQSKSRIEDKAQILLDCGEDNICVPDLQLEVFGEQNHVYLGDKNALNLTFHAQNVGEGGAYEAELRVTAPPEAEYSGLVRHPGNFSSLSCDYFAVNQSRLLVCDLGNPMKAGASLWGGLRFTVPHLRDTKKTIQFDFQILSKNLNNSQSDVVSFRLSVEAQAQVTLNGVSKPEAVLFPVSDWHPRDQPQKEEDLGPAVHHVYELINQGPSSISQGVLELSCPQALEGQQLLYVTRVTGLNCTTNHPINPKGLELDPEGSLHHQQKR
Sequence of Integrin alpha-5/beta-1 (P08648 895-1049 limits assumed): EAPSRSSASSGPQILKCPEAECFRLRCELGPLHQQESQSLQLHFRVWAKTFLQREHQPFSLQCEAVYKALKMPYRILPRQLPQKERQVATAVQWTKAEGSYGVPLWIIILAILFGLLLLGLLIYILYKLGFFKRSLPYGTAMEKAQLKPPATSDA

Sequence of Integrin alpha-V/beta-3 (P05106 27-788 limits assumed): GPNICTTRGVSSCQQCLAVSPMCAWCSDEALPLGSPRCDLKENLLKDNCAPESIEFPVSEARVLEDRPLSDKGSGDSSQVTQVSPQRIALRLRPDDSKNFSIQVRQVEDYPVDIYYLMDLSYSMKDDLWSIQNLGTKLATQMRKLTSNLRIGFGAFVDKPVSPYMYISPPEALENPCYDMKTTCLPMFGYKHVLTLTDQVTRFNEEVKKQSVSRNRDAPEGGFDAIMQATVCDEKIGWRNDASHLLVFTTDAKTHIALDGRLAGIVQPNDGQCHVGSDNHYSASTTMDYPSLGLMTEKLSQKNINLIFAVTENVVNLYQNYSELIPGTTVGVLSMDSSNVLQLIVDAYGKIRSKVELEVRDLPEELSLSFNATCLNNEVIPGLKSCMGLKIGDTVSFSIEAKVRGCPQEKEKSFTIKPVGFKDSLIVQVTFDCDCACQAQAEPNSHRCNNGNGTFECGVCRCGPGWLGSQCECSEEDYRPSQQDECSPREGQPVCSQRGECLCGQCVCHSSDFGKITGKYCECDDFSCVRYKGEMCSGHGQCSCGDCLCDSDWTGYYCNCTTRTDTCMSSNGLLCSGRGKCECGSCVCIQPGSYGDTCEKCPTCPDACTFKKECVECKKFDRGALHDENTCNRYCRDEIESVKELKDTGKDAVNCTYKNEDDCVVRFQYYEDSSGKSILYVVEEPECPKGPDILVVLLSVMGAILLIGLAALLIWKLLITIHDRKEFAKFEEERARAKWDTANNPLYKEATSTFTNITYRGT
Sequence of Integrin alpha-V/beta-3 (P06756 31-889 limits assumed): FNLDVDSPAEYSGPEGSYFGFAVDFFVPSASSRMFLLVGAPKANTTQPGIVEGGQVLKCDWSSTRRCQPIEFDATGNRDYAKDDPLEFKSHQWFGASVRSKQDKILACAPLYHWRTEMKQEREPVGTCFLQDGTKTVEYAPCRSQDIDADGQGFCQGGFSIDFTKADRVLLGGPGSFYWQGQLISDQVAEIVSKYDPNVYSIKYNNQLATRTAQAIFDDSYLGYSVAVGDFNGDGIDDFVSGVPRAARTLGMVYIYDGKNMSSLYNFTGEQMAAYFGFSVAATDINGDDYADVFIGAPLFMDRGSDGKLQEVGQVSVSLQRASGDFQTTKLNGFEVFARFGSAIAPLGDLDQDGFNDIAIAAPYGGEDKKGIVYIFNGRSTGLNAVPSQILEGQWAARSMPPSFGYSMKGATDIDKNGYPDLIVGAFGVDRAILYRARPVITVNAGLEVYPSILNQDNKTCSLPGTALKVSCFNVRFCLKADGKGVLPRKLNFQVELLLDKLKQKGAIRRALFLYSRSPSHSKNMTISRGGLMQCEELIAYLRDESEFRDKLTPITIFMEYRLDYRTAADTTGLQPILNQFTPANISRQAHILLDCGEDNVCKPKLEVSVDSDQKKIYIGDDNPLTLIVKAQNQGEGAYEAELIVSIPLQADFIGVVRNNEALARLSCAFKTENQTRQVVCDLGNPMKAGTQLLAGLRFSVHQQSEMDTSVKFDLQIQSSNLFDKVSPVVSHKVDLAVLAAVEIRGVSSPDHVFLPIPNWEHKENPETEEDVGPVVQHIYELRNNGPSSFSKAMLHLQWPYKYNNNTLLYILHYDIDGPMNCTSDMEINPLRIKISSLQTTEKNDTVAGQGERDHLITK
Sequence of Integrin alpha-V/beta-3 (P06756 891-1048 limits assumed): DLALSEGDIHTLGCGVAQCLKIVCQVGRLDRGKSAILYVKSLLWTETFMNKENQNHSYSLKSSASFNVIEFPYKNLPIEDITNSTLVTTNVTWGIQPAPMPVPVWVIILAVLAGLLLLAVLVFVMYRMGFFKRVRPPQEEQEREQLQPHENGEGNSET

For `COC(=O)N1C[C@H]2C[C@H]3C[C@]31C(=O)N[C@@H](CCCNC(=N)N)C(=O)NCC(=O)N[C@@H](CC(=O)O)C(=O)N2`, the IC50 was 34 nM at Integrin alpha-V/beta-3 and 15 nM at Integrin alpha-5/beta-1.
In the case of `COC(=O)N1CC[C@H]2NC(=O)[C@H](CC(=O)O)NC(=O)CNC(=O)[C@H](CCCNC(=N)N)NC(=O)[C@@]13C[C@@H]23`, the IC50 on Integrin alpha-V/beta-3 was 2.4 nM; on Integrin alpha-5/beta-1 it was 26 nM.

For the origin of these results see ChEMBL document CHEMBL3751710, “Cyclic RGD peptidomimetics containing 4- and 5-amino-cyclopropane pipecolic acid (CPA) templates as dual αVβ3 and α5β1 integrin ligands” (Bioorg Med Chem, 2016).
